Measured values: PubChem BioAssay (NCI)
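Following 48 hours of exposure in 96-well plates, responses at five concentrations were used to interpolate endpoints linearly. GI50 marks 50% less growth. The concentration for full growth arrest is given as TGI.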

Columns and labels:
Test in all cases: NCI-60 cell line screen, 48 h
NCI-H23 lung = tested on: NCI-H23 lung
OVCAR-5 ovarian = tested on: OVCAR-5 ovarian
MOLT-4 leukemia = tested on: MOLT-4 leukemia
NCI-H522 lung = tested on: NCI-H522 lung
IGROV1 ovarian = tested on: IGROV1 ovarian
RXF 393 renal = tested on: RXF 393 renal
KM12 colon = tested on: KM12 colon
SF-539 CNS = tested on: SF-539 CNS
M14 melanoma = tested on: M14 melanoma
MDA-MB-231 breast = tested on: MDA-MB-231 breast
NCI/ADR-RES ovarian = tested on: NCI/ADR-RES ovarian
MCF7 breast = tested on: MCF7 breast

Structure (SMILES) | TGI (NCI-H23 lung) | TGI (OVCAR-5 ovarian) | TGI (MOLT-4 leukemia) | TGI (NCI-H522 lung) | TGI (IGROV1 ovarian) | TGI (RXF 393 renal) | TGI (KM12 colon) | TGI (SF-539 CNS) | TGI (M14 melanoma) | TGI (MDA-MB-231 breast) | TGI (NCI/ADR-RES ovarian) | TGI (MCF7 breast) | GI50 (NCI-H23 lung) | GI50 (OVCAR-5 ovarian) | GI50 (MOLT-4 leukemia) | GI50 (NCI-H522 lung) | GI50 (IGROV1 ovarian) | GI50 (KM12 colon) | GI50 (SF-539 CNS) | GI50 (MCF7 breast)
Cc1nc2ccccc2nc1NS(=O)(=O)c1ccc(N)cc1 | > 100 µM | > 100 µM | > 100 µM | > 100 µM | > 100 µM | > 100 µM | > 100 µM | > 100 µM | > 100 µM | – | – | – | – | – | – | – | – | – | – | –
O=S(=O)(CC1=NC2C=CC=CC2N=C1)NCc1ccccc1 (stereo not drawn) | > 100 µM | > 100 µM | > 100 µM | > 100 µM | > 100 µM | > 100 µM | > 100 µM | > 100 µM | > 100 µM | – | – | – | – | – | – | – | – | – | – | –
O=C1/C(=C/c2cccc([N+](=O)[O-])c2)COc2ccccc21 | 18.2 µM | > 100 µM | 6.62 µM | 3.1 µM | > 19.9 µM | 12.8 µM | 6.29 µM | – | 3.38 µM | – | – | – | – | – | – | – | – | – | – | –
Cc1ccc(S(=O)(=O)N/N=C2\C(=O)C3CC2C(Cl)C3Cl)cc1 (stereo not drawn) | > 100 µM | > 100 µM | > 100 µM | – | > 100 µM | – | – | – | > 100 µM | – | – | – | – | – | – | – | – | – | – | –
Fc1ccc(C(OCCN2CCC3CCC(C2)N3CCCc2ccccc2)c2ccc(F)cc2)cc1 (stereo not drawn) | 15 µM | 20.3 µM | 7.86 µM | 12.1 µM | 17.7 µM | – | 11.3 µM | 2.82 µM | 4.76 µM | 13.6 µM | 13.7 µM | 13 µM | – | – | – | – | – | – | – | –
O=C1/C(=C/c2cccc([N+](=O)[O-])c2)CCCc2ccccc21 | 31.4 µM | 27.6 µM | 34 µM | 19.9 µM | 25.8 µM | – | 16.5 µM | 28.6 µM | 26.7 µM | 34.2 µM | 23.8 µM | 15.3 µM | – | – | – | – | – | – | – | –
O=C(Cc1ccccc1)N/N=C(/CCN1CCCC1)CC(c1ccccc1)c1c(O)c2ccccc2oc1=O (stereo not drawn) | > 100 µM | > 100 µM | > 100 µM | > 100 µM | > 100 µM | – | > 100 µM | > 100 µM | > 100 µM | > 100 µM | > 100 µM | > 100 µM | – | – | – | – | – | – | – | –
COc1ccc2c(c1)c(Cc1c(C)n(C)c3ccc(OC)cc13)c(C)n2C | > 100 µM | > 100 µM | > 100 µM | > 100 µM | > 100 µM | > 100 µM | > 100 µM | > 100 µM | > 100 µM | – | – | – | – | – | – | – | – | – | – | –
CSc1nc(C)cc(Nc2ccc(O)c(CN3CCCCC3)c2)n1 | > 100 µM | > 100 µM | > 100 µM | > 100 µM | > 100 µM | > 100 µM | > 100 µM | > 100 µM | 31.8 µM | – | > 100 µM | > 100 µM | – | – | – | – | – | – | – | –
CC1=NC(=Cc2ccc(Cl)cc2)C(=O)N1n1c(-c2ccccc2)nc2ccccc2c1=O | 96 µM | – | > 100 µM | 43 µM | > 100 µM | – | > 100 µM | > 100 µM | > 100 µM | > 100 µM | – | > 100 µM | – | – | – | – | – | – | – | –
CCc1cc(Cc2cc(CC)c(NC(=O)C3=CC(=O)CC(c4ccc(OC)cc4)O3)c(CC)c2Cl)c(Cl)c(CC)c1NC(=O)C1=CC(=O)CC(c2ccc(OC)cc2)O1 (stereo not drawn) | 32 µM | 37.3 µM | > 100 µM | – | 45.5 µM | 34.7 µM | 26.9 µM | 38.9 µM | 31.6 µM | – | – | – | – | – | – | – | – | – | – | –
c1ccc(C2=NN(c3ccccc3)C3(S2)SC(c2ccccc2)(c2ccccc2)c2ccccc23)cc1 (stereo not drawn) | > 100 µM | > 100 µM | > 100 µM | > 100 µM | > 100 µM | – | > 100 µM | > 100 µM | > 100 µM | – | – | – | – | – | – | – | – | – | – | –
CC1CN=C(NCc2ccccc2)S1 (stereo not drawn) | > 100 µM | > 100 µM | > 100 µM | > 100 µM | – | > 100 µM | > 100 µM | > 100 µM | > 100 µM | > 100 µM | – | > 100 µM | – | – | – | – | – | – | – | –
Clc1cc(Cl)cc(N2N=C(c3cccc(Nc4ccncc4)c3)CC2c2ccccc2)c1 (stereo not drawn) | 3.91 µM | 8.74 µM | 5.95 µM | 3.6 µM | 3.04 µM | – | 3.7 µM | 3.2 µM | – | – | – | – | 1.81 µM | 2.56 µM | 2.29 µM | 1.79 µM | 1.54 µM | 1.86 µM | 1.72 µM | –
CC1CCCc2c(-c3ccc(Cl)cc3)nc(N)c(C#N)c21 (stereo not drawn) | 99.4 µM | > 100 µM | 69.8 µM | – | 66.1 µM | 93.2 µM | 56.7 µM | 92.3 µM | 86 µM | > 100 µM | 71.3 µM | > 100 µM | – | – | – | – | – | – | – | –
CC(=O)NNC=N/C(C#N)=C(\N)C#N | > 100 µM | > 100 µM | > 100 µM | > 100 µM | > 100 µM | – | > 100 µM | > 100 µM | > 100 µM | > 100 µM | > 100 µM | > 100 µM | – | – | – | – | – | – | – | –
CCn1c(=O)c2c(=O)[nH][nH]c2c2ccccc21 | > 100 µM | > 100 µM | > 100 µM | > 100 µM | > 100 µM | – | > 100 µM | > 100 µM | – | > 100 µM | > 100 µM | > 100 µM | – | – | – | – | – | – | – | –
CN1CC=C(OP(=O)(NCc2ccccc2)N(CCCl)CCCl)CC1 (stereo not drawn) | > 100 µM | > 100 µM | > 100 µM | – | > 100 µM | > 100 µM | > 100 µM | > 100 µM | > 100 µM | > 100 µM | > 100 µM | > 100 µM | – | – | – | – | – | – | – | –
Cc1[nH]c2ncn(/N=C/c3ccccc3)c(=N)c2c1Cc1ccccc1 | > 100 µM | > 100 µM | > 100 µM | – | > 100 µM | > 100 µM | > 100 µM | > 100 µM | > 100 µM | > 100 µM | > 100 µM | > 100 µM | – | – | – | – | – | – | – | –
CSC1=N/C(=C\c2cccs2)C(=O)N1CN1CCCCC1 | > 100 µM | > 100 µM | > 100 µM | – | > 100 µM | – | > 100 µM | – | > 100 µM | > 100 µM | > 100 µM | > 100 µM | – | – | – | – | – | – | – | –
O=c1c2cc(I)ccc2nc(-c2cccs2)n1Nc1ccccc1 | 91 µM | > 100 µM | > 100 µM | > 100 µM | > 100 µM | > 100 µM | > 100 µM | > 100 µM | > 100 µM | – | > 100 µM | > 100 µM | – | – | – | – | – | – | – | 1.99 µM
